According to PMC9549030, “Structural basis for specific inhibition of the deubiquitinase UCHL1” (Nature Communications, 2022):
Changes are numbered by the printed parent chain. Several values for one entry are separate records, joined by “and”; a condition that tells them apart may be missing. Identical values can stand only once. Entries after “also recorded” stand apart in the source; their conditions may differ. Like-named read-outs stand apart in the source and are kept apart here.

Experiments:
UCHL3 = target: T1, UCHL3 (Homo sapiens, UniProt P15374); assay: Ub-Rhodamine (Ubiquitin rhodamine cleavage) assay; assay type: biochemical; conditions: Supplementary Fig. 10d; 5 mM DTT in buffer H; read-out: IC50 (UCHL3 wt)
T1 sequence (P15374 1-230): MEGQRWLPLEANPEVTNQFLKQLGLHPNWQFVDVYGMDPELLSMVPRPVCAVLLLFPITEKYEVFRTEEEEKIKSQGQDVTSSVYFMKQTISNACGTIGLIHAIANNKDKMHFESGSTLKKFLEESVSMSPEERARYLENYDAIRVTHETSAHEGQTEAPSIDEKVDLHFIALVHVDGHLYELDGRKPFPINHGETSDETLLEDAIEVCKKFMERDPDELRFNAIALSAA

UCHL3 A11I = target: T2, UCHL3 A11I (Homo sapiens, UniProt P15374, A11I); assay: Ub-Rhodamine (Ubiquitin rhodamine cleavage) assay; assay type: biochemical; conditions: Supplementary Fig. 10d; 5 mM DTT in buffer H; read-out: IC50 (UCHL3 A11I)
T2 sequence (P15374 1-230 A11I): T1 sequence (P15374 1-230) with A11I

UCHL3 L168F = target: T3, UCHL3 L168F (Homo sapiens, UniProt P15374, L168F); assay: Ub-Rhodamine (Ubiquitin rhodamine cleavage) assay; assay type: biochemical; conditions: Supplementary Fig. 10d; 5 mM DTT in buffer H; read-out: IC50 (UCHL3 L168F)
T3 sequence (P15374 1-230 L168F): T1 sequence (P15374 1-230) with L168F

UCHL3 A11I+L168F = target: T4, UCHL3 A11I+L168F (Homo sapiens, UniProt P15374, A11I/L168F); assay: Ub-Rhodamine (Ubiquitin rhodamine cleavage) assay; assay type: biochemical; conditions: Supplementary Fig. 10d; 5 mM DTT in buffer H; read-out: IC50 (UCHL3 A11I+L168F)
T4 sequence (P15374 1-230 A11I/L168F): T1 sequence (P15374 1-230) with A11I, L168F

UCHL1 in U-87 MG cells = tested on: T5, UCHL1 in U-87 MG cells; assay: Cellular Ub-probe (HA-Ub-VS) competition, inhibition of cellular UCHL1; assay type: cell-based, human; conditions: 1 or 24 h
T5 construct: Western blot analysis of endogenous UCHL1 labeled with HA-Ub-VS after treatment of U-87 MG cells; endogenous in cells; host or cells: U-87 MG
Description: (§1) Proteins were transferred to a polyvinylidene fluoride (PVDF, only experiments in Fig. 4e and Supplementary Fig. 7e, f) or nitrocellulose (all other experiments) membrane using a Trans-Blot Turbo system (Bio-Rad, 1.3 A, 25 V, 10 min). The membranes were blocked with 5% (m/v) nonfat milk in PBS-T buffer and incubated with indicated primary antibodies (anti-UCHL1, 1:1000, Cell Signaling, D3T2E; anti-PARK7, 1:1000, Cell Signaling, D29E5; anti-Tubulin, 1:4000, Sigma, T6199; anti-Hemagglutinin, 1:1000, BioLegend, 16B12; anti-flag, 1:2000, Sigma, F3165; anti-Ubiquitin, 1:1000, Cell Signaling, P4D1; anti-Ubiquitin, 1:300, Santa Cruz, P4D1, sc-8017; anti-UCHL3, 1:1000, Proteintech, 12384-1-AP) overnight. Then the membranes were incubated with the respective secondary antibody (anti-mouse,1:5000, Sigma, NXA931; anti-rabbit, 1:5000, Sigma, GENA934) coupled to horseradish peroxidase. The chemiluminescent reaction was initiated using a Clarity Western ECL substrate (Bio-Rad) and images were taken on a ChemiDoc MP Imaging System (Bio-Rad).
(§2) The total protein concentration was adjusted to 2 mg/ml by diluting each sample with ABP lysis buffer. A final concentration of 1 µM HA-Ub-VS probe was added, followed by incubation for 30 min at 37 °C. The labeling reaction was quenched by the addition of 4x LDS sample buffer. The samples were separated via SDS-PAGE and further analyzed via western blotting as described above.

UCHL1 [1] = target: T6, UCHL1 (Homo sapiens, UniProt P09936); assay: Thermal shift assay; assay type: binding; conditions: for melting temperature (Tm) of UCHL1: UCHL1 1 µM, 1 h, replicates
T6 sequence (P09936 1-223): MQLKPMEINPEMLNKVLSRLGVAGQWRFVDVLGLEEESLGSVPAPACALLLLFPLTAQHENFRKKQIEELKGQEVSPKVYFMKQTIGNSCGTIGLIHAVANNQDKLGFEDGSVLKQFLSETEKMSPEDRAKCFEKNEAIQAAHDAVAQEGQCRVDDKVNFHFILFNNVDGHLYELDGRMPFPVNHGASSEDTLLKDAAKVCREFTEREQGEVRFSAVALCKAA
Description: Reactions were performed in white 96-well PCR plates (Bio-Rad). UCHL1 was diluted in thermal shift buffer (1x PBS, 5 mM DTT) to a 4x concentration of 4 µM. The protein was then mixed with 4x compound dissolved in thermal shift buffer in a 1:1 ratio. To each well was added 20 µL of DUB-Inhibitor solution, followed by 1 h incubation time. To each well was then added 20 µL 4x SYPRO Orange in thermal shift buffer. After sealing the plates with a transparent film, thermal denaturation (gradient: 20–90 °C; Increment: 0.3 °C, hold for 5 s before read) was performed and monitored by a Bio-Rad Connect cycler.

[2] = tested on: monoubiquitin in U-87 MG cells; assay: Quantification of monoubiquitin levels; assay type: cell-based, human; conditions: 48 h, independent experiments
Description: U-87 MG cells (5 × 10^5/well) were seeded in six-well plates and cultivated for 8 h. Cells were transfected with siRNA as described above. On the next day, cells were cultured in fresh media supplemented with either compounds (final conc. 5 µM) or DMSO, where indicated, for a further 48 h. The media was changed every 24 h to a fresh medium supplemented with compounds (final conc. 5 µM) or DMSO. […] Monoubiquitin band intensities were first normalized to α-tubulin or total protein (Fast Green FCF, TCI) and subsequently normalized to the intensities of monoubiquitin bands in the sample treated with DMSO or siScr (where no DMSO was used) which was set to “1”.

HEK293 cells proteome = assay: Identification of probe-labeled proteins with mass spectrometry (pulldown, other proteins); conditions: 1 µM, vs DMSO
Description: Cells were cultured, treated with a compound, and lysed as described above. The cell lysate was diluted to a protein concentration of 2 mg/mL with ABP lysis buffer. 1 µL of each click reagent (see above) were added to each sample, followed by an incubation period of one hour at room temperature with protection from light. The sample volume was adjusted to 1000 µL with PBS and 30 µL of a NeutrAvidin (Thermo Fisher) bead slurry (prewashed 3x with PBS) were added to each sample. The samples were incubated for one hour to overnight on a rotator at 15 rpm at 4 °C. […] Tryptic peptides were desalted with C18 StageTips and analyzed by nano-HPLC-MS/MS.
An Ultimate 3000 RSLC nano-HPLC system and a Hybrid-Orbitrap mass spectrometer (Q Exactive Plus) equipped with a nano-spray source (Thermo Fisher Scientific) was used. […] Proteins were relatively quantified by using MaxQuant[60] v.2.0.3.1, including the Andromeda search algorithm and searching the Homo sapiens reference proteome of the UniProt database. […] Only proteins for which at least two peptides were quantified were chosen for further validation. Relative quantification of proteins was performed by using the label-free quantification algorithm implemented in MaxQuant. […] Label-free quantification (LFQ) intensities were log-transformed (log2); replicate samples were grouped together. […]

UCHL1 [3] = target: T6, UCHL1; assay: Ub-Rhodamine (Ubiquitin rhodamine cleavage) assay; assay type: biochemical; conditions: 1 h preincubation; for IC50: read-out: IC50 (UCHL1)
U-87 MG cells = assay: Cell growth and viability assay (confluency, propidium iodide); assay type: cell-based, human; conditions: up to 5 µM, up to 72 h
Description: (§3) HEK293 cells (5 × 10^3/well) or U-87 MG cells (5.5 × 10^3/well) were seeded into 96-well dishes. The following day cells were treated with the compounds at varying concentrations and propidium iodide at 20 µg/mL. The plates were immediately transferred to the Incucyte S3. Bright-field and red fluorescent images were automatically captured at 1 or 2 h intervals for 72 h with 10x magnification. The confluency of cells and the number of PI-positive cells was determined using the Incucyte masking program.

HEK293 cells = assay: as above; assay type: cell-based, human
Description: as §3

UCHL1 in HEK293 cells = tested on: T7, UCHL1 in HEK293 cells; assay: Cellular Ub-probe (HA-Ub-VS) competition, inhibition of cellular UCHL1; assay type: cell-based, human
T7 construct: Western blot analysis of endogenous UCHL1 labeled with HA-Ub-VS after treatment of HEK293 cells; endogenous in cells; host or cells: HEK293
Description: as §1, §2

UCHL1 [4] = target: T6, UCHL1; assay: Identification of probe-labeled proteins with mass spectrometry (pulldown enrichment); conditions: HEK293 cells; 1 µM; 24 h
Description: Cells were cultured, treated with a compound, and lysed as described above. The cell lysate was diluted to a protein concentration of 2 mg/mL with ABP lysis buffer. 1 µL of each click reagent (see above) were added to each sample, followed by an incubation period of one hour at room temperature with protection from light. The sample volume was adjusted to 1000 µL with PBS and 30 µL of a NeutrAvidin (Thermo Fisher) bead slurry (prewashed 3x with PBS) were added to each sample. The samples were incubated for one hour to overnight on a rotator at 15 rpm at 4 °C. Beads were pelleted by centrifugation, the supernatant was discarded, and the beads were washed six times (1x with ½x lysis buffer, followed by five washes with PBS). After removing the washing solution completely, the beads were subjected to reduction with dithiothreitol (1 mM), alkylation with chloroacetamide (5 mM) and on-bead digestion with first LysC (Serva Biotech, 1 h, 37 °C), followed by trypsin (Sigma Aldrich, 1 h, overnight). Tryptic peptides were desalted with C18 StageTips and analyzed by nano-HPLC-MS/MS.
An Ultimate 3000 RSLC nano-HPLC system and a Hybrid-Orbitrap mass spectrometer (Q Exactive Plus) equipped with a nano-spray source (Thermo Fisher Scientific) was used. The protein fragments were enriched on a C18 PepMap 100 column (5 μm, 100 Å, 300 μm ID * 5 mm, Dionex) using 0.1% TFA, at a flow rate of 30 μL/min, for 5 min and separated on a C18 PepMap 100 column (3 μm, 100 Å, 75 μm ID × 50 cm) using a linear gradient (5–30% ACN/H2O + 0.1% formic acid over 90 min) with a flow rate of 300 nL/min. […] Signals in the mass range of m/z 300 to 1650 were acquired at a resolution of 70,000 for the full scan, followed by ten high-energy collision-dissociation (HCD) MS/MS scans of the most intense at least doubly charged ions at a resolution of 17,500. Proteins were relatively quantified by using MaxQuant[60] v.2.0.3.1, including the Andromeda search algorithm and searching the Homo sapiens reference proteome of the UniProt database. Briefly, an MS/MS ion search was performed for enzymatic trypsin cleavage, allowing two missed cleavages. Carbamidomethylation was set as a fixed protein modification, and oxidation of methionine and acetylation of the N-terminus were set as variable modifications. The mass accuracy was set to 20 parts per million (ppm) for the first search and to 4.5 ppm for the second search. The false discovery rates for peptide and protein identification were set to 0.01. Only proteins for which at least two peptides were quantified were chosen for further validation. Relative quantification of proteins was performed by using the label-free quantification algorithm implemented in MaxQuant. Statistical data analysis of pulldown samples was performed using Perseus[61] v.1.6.15.0, including proteins which were identified in at least four of the five biological replicates which were used per condition. Label-free quantification (LFQ) intensities were log-transformed (log2); replicate samples were grouped together. Pairwise comparisons of groups were performed separately. Missing values were imputed using small normally distributed values (width 0.3, downshift 1.8) and a two-sided t-test (s0 = 5, FDR = 0.001) was performed.

Cathepsin C = tested on: Cathepsin C; set-up: method as in SI-Ref-4; conditions: ref SI-Ref-4; cited from earlier work
DUBs in HEK293 lysate = assay: Activity-based protein profiling in the lysate with Ub-VS competition; assay type: binding, human; conditions: 1 µM, 1 h
Description: Cells (4 × 10^6) were seeded in 10 cm dishes and grown to 90% confluency. The medium was aspirated, cells were washed with ice-cold PBS, treated with 600 µL ABP lysis buffer (1% (v/v) IGEPAL, 50 mM Tris, 150 mM NaCl, 5% glycerol, pH 8, cOmplete protease inhibitor cocktail), and incubated on ice for 15 min. The lysed cells were scrapped off the dish, cleared by centrifugation, and the protein concentration was determined via a Bradford assay. […] Each compound was diluted to a 2x concentration in PBS buffer from a 10 mM stock in DMSO (final concentration: 1 µM). Then each compound dilution or a DMSO dilution was mixed with cell lysate and incubated for one hour at room temperature. […] Samples were resolved by SDS-PAGE using a 4–12% Bis-Tris gel (Invitrogen, NuPAGE) with MES SDS running buffer for 50 min at 180 V. Fluorescence was read out using the Alexa564 (λex/em 520–545/577–613 nm, for TAMRA) and Alexa680 (λex/em 650–675/700–730 nm, for the PageRuler Prestained NIR Protein Ladder (Thermo Scientific)) channels on a ChemiDoc MP Imaging System (Bio-Rad).

UCHL1 [5] = target: T6, UCHL1; assay: kobs/[I] kinetic assay; assay type: biochemical; conditions: mean ± SD of independent experiments
Description: Reactions were performed in 384 well plates as above. Compound (5 µL of a 4x stock in reaction buffer H supplemented with 2.5 mM TCEP; varying final concentrations ranging from 78 nM to 200 µM) and Ub-Rhodamine 110 (5 µL of a 4x stock in buffer H supplemented with 2.5 mM TCEP; final concentration: 50 nM) were mixed in a 1:1 ratio.

NC(=O)CI [IAA, iodoacetamide, reference compound]
IC50 (UCHL3): 1.7 ± 0.1 mM | IC50 (UCHL3 A11I): 1.9 ± 0.1 mM | IC50 (UCHL3 L168F): 2 ± 0.1 mM | IC50 (UCHL3 A11I+L168F): 2.2 ± 0.1 mM

CC(=O)O/N=C1\C(=O)N(Cc2cc(Cl)ccc2Cl)c2ccc(Cl)cc21 [LDN-57444, reference compound]
inhibition of cellular UCHL1 (UCHL1 in U-87 MG cells): does not lead to inhibition of cellular UCHL1

C#CCCCNC(=O)[C@H]1CCN(C#N)C1 [GK16S]
melting temperature (Tm) of UCHL1 (UCHL1 [1]; compound 1.25 µM): 53.4 and 53.1 | melting temperature (Tm) of UCHL1 (UCHL1 [1]; compound 2.5 µM): 53.4 and 53.1 | melting temperature (Tm) of UCHL1 (UCHL1 [1]; compound 5 µM): 53.1 and 53.4 | monoubiquitin intensity normalized to DMSO (= 1) ([2]; siSCr, 5 µM): 1.022 and 1.336 and 1.231 and 0.8547 | monoubiquitin intensity normalized to DMSO (= 1) ([2]; siUCHL3, 5 µM): 1.049 and 0.9228 and 0.9331 and 0.7832 and 1.05 and 0.7905 | Fold change log2, protein 02. Sep (HEK293 cells proteome): 0.4147 | Fold change log2, protein 07. Sep (HEK293 cells proteome): 0.472 | IC50 (UCHL1 [3]): > 100000 nM | remaining activity at 0.00050402 µM (UCHL1 [3]; compound 0.50402 nM, read-out: UCHL1 activity, data point mean): 90.8% | remaining activity at 0.00151206 µM (UCHL1 [3]; compound 1.51206 nM, read-out: UCHL1 activity, data point mean): 89.7% | remaining activity at 0.00453618 µM (UCHL1 [3]; compound 4.53618 nM, read-out: UCHL1 activity, data point mean): 99.1% | remaining activity at 0.0136085 µM (UCHL1 [3]; compound 13.6085 nM, read-out: UCHL1 activity, data point mean): 96.8% | remaining activity at 0.0408257 µM (UCHL1 [3]; compound 40.8257 nM, read-out: UCHL1 activity, data point mean): 83.7% | remaining activity at 0.122477 µM (UCHL1 [3]; compound 122.477 nM, read-out: UCHL1 activity, data point mean): 87.4% | remaining activity at 0.367431 µM (UCHL1 [3]; compound 367.431 nM, read-out: UCHL1 activity, data point mean): 90.4% | remaining activity at 1.10229 µM (UCHL1 [3]; compound 1102.29 nM, read-out: UCHL1 activity, data point mean): 91.3% | remaining activity at 3.30688 µM (UCHL1 [3]; compound 3306.88 nM, read-out: UCHL1 activity, data point mean): 90.9% | remaining activity at 30.581 µM (UCHL1 [3]; compound 30581 nM, read-out: UCHL1 activity, data point mean): 81% | remaining activity at 100 µM (UCHL1 [3]; compound 100000 nM, read-out: UCHL1 activity, data point mean): 68.2% | toxicity (cell growth and viability) (U-87 MG cells): nontoxic | growth arrest and apoptosis (HEK293 cells; up to 5 µM, up to 72 h): neither GK13S nor GK16S showed growth arrest nor apoptosis | inhibition of cellular UCHL1 (UCHL1 in HEK293 cells; HEK293 cells, 24 h): did not equate to a detectable inhibition; also recorded: does not inhibit cellular UCHL1 | enrichment factor of UCHL1 (log2, vs DMSO) (UCHL1 [4]): 3

N#Cc1ccc(-c2ccc(C[C@@H](C#N)NC(=O)C3(N)CCOCC3)cc2)cc1 [AZD5248]
IC50 (Cathepsin C): 2.9 nM

C#CCn1ccc2c(-c3cccc4c3CCN4C(=O)[C@@H]3CCCN3C#N)ccnc21 [CG173]
protein stabilization of UCHL1 compared with GK13S (UCHL1 [1]; Supplementary Fig. 5c): reduced protein stabilization | DUB engagement (Ub-VS competitive labeling) (DUBs in HEK293 lysate): Ubiquitin-probe competitive band of approx. 30 kDa | IC50 (UCHL1 [3]; mean ± SD of independent experiments): 43 ± 19 nM | apoptosis and growth arrest (HEK293 cells; 1.3 and 5 µM): strong induction of apoptosis and growth arrest | inhibition of cellular UCHL1 (UCHL1 in HEK293 cells; after 1 h (Supplementary Fig. 5f)): very low degree of inhibition | inhibition of cellular UCHL1 (UCHL1 in HEK293 cells; after 24 h incubation (Supplementary Fig. 5f)): no inhibition of cellular UCHL1 at all | kinact/KI (UCHL1 [5]): 597 ± 209 M⁻¹ s⁻¹
